Test: tandem ring-opening/ring-closing metathesis (ROM-RCM) of side-chain norbornene with two Glu allyl esters to bicyclic peptide; Hoveyda-Grubbs 2nd gen (M720), two portions (library procedure)
Conditions: the molecule shown is the open-chain precursor; 28-membered ring; 1,2-dichloroethane; resin; 70.0 °C

`C=CCOC(=O)CC[C@H](NC(=O)[C@@H]1CCCN1C(=O)[C@H](CC(C)C)NC(=O)[C@H](C)NC(=O)[C@H](CCCCNC(=O)[C@@H]1C[C@H]2C=C[C@@H]1C2)NC(=O)[C@@H](NC(=O)[C@@H](NC(=O)[C@H](Cc1ccccc1)NC(=O)[C@H](CCC(=O)OCC=C)NC(=O)OCC1c2ccccc2-c2ccccc21)[C@@H](C)CC)C(C)C)C(N)=O` and `C=CCOC(=O)CC[C@H](NC(=O)[C@@H]1CCCN1C(=O)[C@H](CC(C)C)NC(=O)[C@H](C)NC(=O)[C@H](CCCCNC(=O)[C@H]1C[C@H]2C=C[C@@H]1C2)NC(=O)[C@@H](NC(=O)[C@@H](NC(=O)[C@H](Cc1ccccc1)NC(=O)[C@H](CCC(=O)OCC=C)NC(=O)OCC1c2ccccc2-c2ccccc21)[C@@H](C)CC)C(C)C)C(N)=O` are the same in ring closure, conversion by HPLC (% (semiquantitative, mass spectrometry)): 2 for the first, 2 for the second.

First: C=CCOC(=O)CC[C@H](NC(=O)[C@H](CC(C)C)NC(=O)[C@H](C)NC(=O)[C@H](CCCCNC(=O)[C@H]1C[C@H]2C=C[C@@H]1C2)NC(=O)[C@@H](NC(=O)[C@@H](NC(=O)[C@H](Cc1ccccc1)NC(=O)[C@H](CCC(=O)OCC=C)NC(=O)OCC1c2ccccc2-c2ccccc21)[C@@H](C)CC)C(C)C)C(N)=O
Second: C=CCOC(=O)CC[C@H](NC(=O)[C@H](CC(C)C)NC(=O)[C@H](C)NC(=O)[C@H](CCCCNC(=O)[C@@H]1C[C@H]2C=C[C@@H]1C2)NC(=O)[C@@H](NC(=O)[C@@H](NC(=O)[C@H](Cc1ccccc1)NC(=O)[C@H](CCC(=O)OCC=C)NC(=O)OCC1c2ccccc2-c2ccccc21)[C@@H](C)CC)C(C)C)C(N)=O
The ring closure, conversion by HPLC (% (semiquantitative, mass spectrometry)) of the first is higher: 65 for the first, 18 for the second.

Compared with `C=CCOC(=O)CC[C@H](NC(=O)[C@H](CC(C)C)NC(=O)[C@@H]1CCCN1C(=O)[C@H](C)NC(=O)[C@H](CCCCNC(=O)[C@H]1C[C@H]2C=C[C@@H]1C2)NC(=O)[C@@H](NC(=O)[C@@H](NC(=O)[C@H](Cc1ccccc1)NC(=O)[C@H](CCC(=O)OCC=C)NC(=O)OCC1c2ccccc2-c2ccccc21)[C@@H](C)CC)C(C)C)C(N)=O`, `C=CCOC(=O)CC[C@H](NC(=O)[C@H](CC(C)C)NC(=O)[C@@H]1CCCN1C(=O)[C@H](C)NC(=O)[C@H](CCCCNC(=O)[C@@H]1C[C@H]2C=C[C@@H]1C2)NC(=O)[C@@H](NC(=O)[C@@H](NC(=O)[C@H](Cc1ccccc1)NC(=O)[C@H](CCC(=O)OCC=C)NC(=O)OCC1c2ccccc2-c2ccccc21)[C@@H](C)CC)C(C)C)C(N)=O` is lower in ring closure, conversion by HPLC (% (semiquantitative, mass spectrometry)): 45 for the first, 10 for the second.

Compared with `C=CCOC(=O)CC[C@H](NC(=O)[C@H](CC(C)C)NC(=O)[C@H](C)NC(=O)[C@@H]1CCCN1C(=O)[C@H](CCCCNC(=O)[C@@H]1C[C@H]2C=C[C@@H]1C2)NC(=O)[C@@H](NC(=O)[C@@H](NC(=O)[C@H](Cc1ccccc1)NC(=O)[C@H](CCC(=O)OCC=C)NC(=O)OCC1c2ccccc2-c2ccccc21)[C@@H](C)CC)C(C)C)C(N)=O`, `C=CCOC(=O)CC[C@H](NC(=O)[C@H](CC(C)C)NC(=O)[C@H](C)NC(=O)[C@@H]1CCCN1C(=O)[C@H](CCCCNC(=O)[C@H]1C[C@H]2C=C[C@@H]1C2)NC(=O)[C@@H](NC(=O)[C@@H](NC(=O)[C@H](Cc1ccccc1)NC(=O)[C@H](CCC(=O)OCC=C)NC(=O)OCC1c2ccccc2-c2ccccc21)[C@@H](C)CC)C(C)C)C(N)=O` is higher in ring closure, conversion by HPLC (% (semiquantitative, mass spectrometry)): 14 for the first, 47 for the second.

Same assay, conditions: the molecule shown is the open-chain precursor; 31-membered ring; 1,2-dichloroethane; resin; 70.0 °C

First: C=CCOC(=O)CC[C@H](NC(=O)[C@H](CC(C)C)NC(=O)[C@H](C)NC(=O)[C@H](CCCCNC(=O)[C@@H]1C[C@H]2C=C[C@@H]1C2)NC(=O)[C@@H](NC(=O)[C@@H](NC(=O)[C@@H]1CCCN1C(=O)[C@H](Cc1ccccc1)NC(=O)[C@H](CCC(=O)OCC=C)NC(=O)OCC1c2ccccc2-c2ccccc21)[C@@H](C)CC)C(C)C)C(N)=O
Second: C=CCOC(=O)CC[C@H](NC(=O)[C@H](CC(C)C)NC(=O)[C@H](C)NC(=O)[C@H](CCCCNC(=O)[C@H]1C[C@H]2C=C[C@@H]1C2)NC(=O)[C@@H](NC(=O)[C@@H](NC(=O)[C@@H]1CCCN1C(=O)[C@H](Cc1ccccc1)NC(=O)[C@H](CCC(=O)OCC=C)NC(=O)OCC1c2ccccc2-c2ccccc21)[C@@H](C)CC)C(C)C)C(N)=O
The ring closure, conversion by HPLC (% (semiquantitative, mass spectrometry)) of the first is lower: 74 for the first, 79 for the second.

First: C=CCOC(=O)CC[C@H](NC(=O)[C@H](CC(C)C)NC(=O)[C@H](C)NC(=O)[C@H](CCCCNC(=O)[C@H]1C[C@H]2C=C[C@@H]1C2)NC(=O)[C@@H](NC(=O)[C@@H]1CCCN1C(=O)[C@@H](NC(=O)[C@H](Cc1ccccc1)NC(=O)[C@H](CCC(=O)OCC=C)NC(=O)OCC1c2ccccc2-c2ccccc21)[C@@H](C)CC)C(C)C)C(N)=O
Second: C=CCOC(=O)CC[C@H](NC(=O)[C@H](CC(C)C)NC(=O)[C@H](C)NC(=O)[C@H](CCCCNC(=O)[C@@H]1C[C@H]2C=C[C@@H]1C2)NC(=O)[C@@H](NC(=O)[C@@H]1CCCN1C(=O)[C@@H](NC(=O)[C@H](Cc1ccccc1)NC(=O)[C@H](CCC(=O)OCC=C)NC(=O)OCC1c2ccccc2-c2ccccc21)[C@@H](C)CC)C(C)C)C(N)=O
The ring closure, conversion by HPLC (% (semiquantitative, mass spectrometry)) of the first is higher: 80 for the first, 14 for the second.

Going from `C=CCOC(=O)CC[C@H](NC(=O)[C@H](CC(C)C)NC(=O)[C@H](C)NC(=O)[C@H](CCCCNC(=O)[C@H]1C[C@H]2C=C[C@@H]1C2)NC(=O)[C@@H]1CCCN1C(=O)[C@@H](NC(=O)[C@@H](NC(=O)[C@H](Cc1ccccc1)NC(=O)[C@H](CCC(=O)OCC=C)NC(=O)OCC1c2ccccc2-c2ccccc21)[C@@H](C)CC)C(C)C)C(N)=O` to `C=CCOC(=O)CC[C@H](NC(=O)[C@H](CC(C)C)NC(=O)[C@H](C)NC(=O)[C@H](CCCCNC(=O)[C@@H]1C[C@H]2C=C[C@@H]1C2)NC(=O)[C@@H]1CCCN1C(=O)[C@@H](NC(=O)[C@@H](NC(=O)[C@H](Cc1ccccc1)NC(=O)[C@H](CCC(=O)OCC=C)NC(=O)OCC1c2ccccc2-c2ccccc21)[C@@H](C)CC)C(C)C)C(N)=O`, the ring closure, conversion by HPLC (% (semiquantitative, mass spectrometry)) falls from 34 to 25.

Going from `C=CCOC(=O)CC[C@H](NC(=O)[C@H](CC(C)C)NC(=O)[C@H](C)NC(=O)[C@H](CCCCNC(=O)[C@@H]1C[C@H]2C=C[C@@H]1C2)NC(=O)[C@@H](NC(=O)[C@@H](NC(=O)[C@H](Cc1ccccc1)NC(=O)[C@@H]1CCCN1C(=O)[C@H](CCC(=O)OCC=C)NC(=O)OCC1c2ccccc2-c2ccccc21)[C@@H](C)CC)C(C)C)C(N)=O` to `C=CCOC(=O)CC[C@H](NC(=O)[C@H](CC(C)C)NC(=O)[C@H](C)NC(=O)[C@H](CCCCNC(=O)[C@H]1C[C@H]2C=C[C@@H]1C2)NC(=O)[C@@H](NC(=O)[C@@H](NC(=O)[C@H](Cc1ccccc1)NC(=O)[C@@H]1CCCN1C(=O)[C@H](CCC(=O)OCC=C)NC(=O)OCC1c2ccccc2-c2ccccc21)[C@@H](C)CC)C(C)C)C(N)=O`, the ring closure, conversion by HPLC (% (semiquantitative, mass spectrometry)) rises from 22 to 55.
